Ki, MIC and Activity data for four compounds are collected here from ChEMBL document CHEMBL1142426, “Design and synthesis of macrocyclic peptidyl hydroxamates as peptide deformylase inhibitors” (2008).

Experiment [1] deals with T1, Peptide deformylase (Escherichia coli) (UniProt Q9JN24).
T1 sequence (whole entry): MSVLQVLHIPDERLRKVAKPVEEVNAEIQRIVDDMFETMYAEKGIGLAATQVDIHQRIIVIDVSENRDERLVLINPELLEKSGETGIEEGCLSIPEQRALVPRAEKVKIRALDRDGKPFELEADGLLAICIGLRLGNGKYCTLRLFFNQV
Kind of experiment: Inhibition of cobalt-substituted Escherichia coli PDF.

For experiment [2], the system named is Bacillus subtilis. Kind of experiment: Antimicrobial activity against Bacillus subtilis. It counts as functional.
Experiment [3] addresses T1, Peptide deformylase (Escherichia coli). Kind of experiment: Slow-binding inhibition of cobalt-substituted Escherichia coli PDF.
The subject of experiment [4] is Escherichia coli. Kind of experiment: Antimicrobial activity against Escherichia coli. It counts as functional.

What is called Ki is the equilibrium dissociation constant of an inhibitor or competing ligand from its target. A low value points to a stronger hold on the target. For orientation: MIC means the least concentration at which growth counts as inhibited. The low end stands for a more susceptible organism, the high end for a less susceptible organism.

In brackets after ≈: the same amount, converted by molar mass. Activity calls are given as the source filed them. No cut-off for these calls is given here.

With `CC(C)(C)[C@@H]1NC(=O)[C@@H](CC(=O)NO)NC(=O)CCCCCCCCCNC1=O`, the Ki in experiment [1] was over 20000 nM.
As for `CC(C)(C)[C@@H]1NC(=O)[C@@H](CC(=O)NO)CCCCCCCCCNC1=O`, the minimal inhibitory concentration (MIC) in experiment [2] was 2 µg/mL (≈ 5.41 µM); in experiment [4], over 24 µg/mL. Besides, the figures for the Ki in experiment [1] and in experiment [3] were 210 nM and 4.4 nM, respectively.
Consider `O=C(C[C@H]1CCCCCCCCCNC(=O)[C@@H]2CCCN2C1=O)NO`, for which, in experiment [2], the MIC is over 24 µg/mL. In addition, the inhibition constant (Ki) amounted to 16000 nM in experiment [1] and 1400 nM in experiment [3]. The result in experiment [4] was inactive.
For `CC(C)(C)[C@@H]1NC(=O)[C@@H](CN(O)C=O)CCCCCCCCCNC1=O`, the values for the Ki in experiment [1] and in experiment [3] were 109 nM and 0.33 nM, respectively.
